Results on 1 compound are retold here after patent US20180178030A1, “PHOTODYNAMIC THERAPEUTIC METHOD FOR TREATING DENTAL INFECTION” (Olighter Co. Ltd., priority 2016, published 2018).

The subject of experiment [1] is G (+) bacteria (Streptococcus mutans, Streptococcus sobrinus). Put plainly: in vitro bacterial disinfection by photodynamic therapy method (FIG. 8), G (+) bacteria. It is filed as cell-based. As to conditions: photosensitizer plus infrared laser ray 808 nanometers, irradiation about 5 minutes. An excerpt:
(§1) One group assay represents the different bacterial disinfection by using the photodynamic therapy method in vitro with a specific irradiated wavelength of the light, and the other group assay represents the different bacterial disinfection by using the photodynamic therapy method in vitro with a specific compound X and the specific irradiated wavelength of the light.
(§2) The light is infrared laser ray. The specific irradiated wavelength of the infrared laser ray of is 808 nanometers. The specific compound X is a photosensitizer. The photosensitizer is the indocyanine green dye. The period of irradiating the bacteria is about 5 minutes. The bacteria include gram positive (G (+)) bacteria and gram negative (G (−)) bacteria. The G (+) bacteria include a Streptococcus mutans (S. mutans) and a Streptococcus sobrinus (S. sobrinus). The G (−) bacteria include an Aggregatibacter actinomycetemcomitans (A. actinomycetemcomitans), a Fusobacterium nucleatum (F. nucleatum), and a Porphyromonas gingivalis (P. gingivalis).
(§3) Referring to FIG. 8, when the photodynamic therapy method in vitro uses the specific photosensitizer and the specific irradiated wavelength of the light, the G (+) bacterial show the percentage growth rate as zero, and the G (−) bacteria show the percentage growth rate as less than 20%.

Experiment [2] has as its system G (−) bacteria (Aggregatibacter actinomycetemcomitans, Fusobacterium nucleatum, Porphyromonas gingivalis). Put plainly: in vitro bacterial disinfection by photodynamic therapy method (FIG. 8), G (−) bacteria. In kind it is cell-based. As to conditions: photosensitizer plus infrared laser ray 808 nanometers, irradiation about 5 minutes.
Source text: as §1, §2, §3

As for `CC1(C)C(/C=C/C=C/C=C/C=C2\N(CCCCS(=O)(=O)O)c3ccc4ccccc4c3C2(C)C)=[N+](CCCCS(=O)(=O)[O-])c2ccc3ccccc3c21` [specific photosensitizer, indocyanine green], the “percentage growth rate of the bacteria” value in experiment [1] is “zero”; in experiment [2] it was “less than 20%”.
